Measured values reported in PMC9854774, “Monocarbonyl Curcumin Analogues as Potent Inhibitors against Human Glutathione Transferase P1-1” (Antioxidants, 2022).
“Also recorded” adds a separate entry of the source. Like-named read-outs stand apart in the source and are kept apart here.

Columns and labels:
[1] = target: T1, hGSTP1-1 (Homo sapiens, UniProt P09211); assay: hGSTP1-1 enzyme activity/inhibition assay (CDNB-GSH conjugation, 340 nm); type: biochemical; conditions: recombinant hGSTP1-1, 25 °C; for inhibition at 100 µM / Enzyme Inhibition (%): compound at final concentration of 100 μM; for IC50: CDNB/GSH assay, read-out: IC50 against hGSTP1-1
T1 construct: made in house; host or cells: E. coli BL21 (DE3)
Description: Determination of hGSTP1-1 activity was performed by monitoring the formation of the conjugate between CDNB and GSH and measuring the absorption at λ = 340 nm (ε = 9600 L·mol^−1·cm^−1) at 25 °C for 120 s, as described previously. One unit of enzyme activity is defined as the amount of enzyme that produces 1.0 μmol of product per minute under the assay conditions. Curcuminoids and monocarbonyl curcumin analogues were dissolved in DMSO (100 μΜ) and added to the assay mixture (the volume of DMSO was maintained at 2% v/v final concentration). The mixture was incubated at 25 °C for 1 min, prior to adding the enzyme sample. Initial velocities were determined in triplicates and were corrected for spontaneous reaction rates, when necessary. […] The IC50 values were determined from a graph of the remaining GST activity (%) against inhibitor concentration.
(§1) The computer program GraphPad Prism version 8 (GraphPad Prism Software, Inc., San Diego, CA, USA) was used for producing kinetic graphs and determining apparent kinetic parameters/constants and IC50 values.

[2] = target: T1, hGSTP1-1; assay: Kinetic inhibition analysis of hGSTP1-1 (Lineweaver-Burk); type: biochemical; conditions: for Experimental Binding Free Energy ΔGexp: calculated from Ki; for Type of Inhibition: pH 6.5, 25 °C; for Ki: binding to free enzyme, read-out: Inhibition Constant Ki; for Experimental Binding Free Energy ΔG′exp: calculated from Ki΄; for Inhibition Constant Ki΄: binding to enzyme-substrate complex
Description: as §1
Initial velocities (25 °C) for the hGSTP1-1-catalyzed reaction with CDNB as a variable substrate were determined in reaction mixtures (1 mL total volume) containing potassium phosphate buffer (100 mM, pH 6.5), 2.5 mM GSH, and different concentrations of CDNB (typically 14–1000 μM) in the absence and presence of inhibitors (DM96, DM151, DM109, DMC, 0–50 μM). Initial velocities for the hGSTP1-1-catalyzed reaction with GSH as a variable substrate were determined in reaction mixtures (1 mL total volume) (25 °C) containing potassium phosphate buffer (100 mM, pH 6.5), 1 mM CDNB, and different concentrations of GSH (typically 37.5–3750 μΜ) in the absence and presence of inhibitors (DM96, DM151, DM109, Curcumin II, 0–50 μM).

[3] = system: DU-145 cells; assay: In vitro cytotoxicity, MTT colorimetric assay; type: cell-based, human; conditions: read-out: IC50 against DU-145
Description: DU-145 cells were grown in Dulbecco’s modified eagle medium (DMEM) growth medium of pH 7.4, supplemented with 10% fetal bovine serum (FBS), penicillin (100 U·mL^−1), glutamine (2 mM), and streptomycin (100 μg·mL^−1). Cell cultures were maintained in flasks and were grown at 37 °C in a humidified atmosphere of 5% CO2 in air. […] The subcultivation ratio was 1:2 to 1:5.
Cells were seeded in 96-well plates (8 × 10^3 cells/well in 100 μL culture medium) and grown overnight at 37 °C in a 5% CO2 incubator. Exponentially growing cells were incubated for 48 h with various concentrations ranging between 10^−3–10^−[…] of each derivative, and the final DMSO concentration never exceeded 0.2%. The medium was then removed and replaced with 100 μL of MTT solution (1 mg·mL^−1). After a 4 h incubation, the solution was aspirated, formazan crystals were solubilized in 100 μL of DMSO, and absorbance was recorded at 540 nm on a Tecan well plate reader. The results were expressed as % cell viability = (mean optical density (OD) of treated cells/mean OD of untreated cells) × 100.

[4] = system: native GST extracted from DU-145 cells; assay: Inhibition of native GST activity in DU-145 cell lysate; type: biochemical, human; conditions: inhibitor at its IC50 for recombinant hGSTP1-1, 25 °C
Description: DU-145 cells were trypsinized, transferred to a Falcon tube, and centrifuged at 1500× g for 10 min. Subsequently, DMEM was removed and the cell pellet was resuspended in 1 mL of potassium phosphate buffer. The cells were lysed by sonication, the suspension was centrifuged at 13,000× g for 5 min, and the supernatant was collected.

[5] = target: T1, hGSTP1-1; design: method as in PMID 9463521, PMID 17046132; conditions: pH 7.4; presumably covalent binding to Cys-47; cited from earlier work
[6] = target: T1, hGSTP1-1; assay: Circular dichroism study of enzyme conformation; conditions: 5 μΜ inhibitor; 0.1 mg/mL hGSTP1-1, 2.5 mM GSH (± 1 mM CDNB), pH 6.5
Description: CD studies were performed using a JASCO J-715 spectropolarimeter (Jasco Co., Tokyo, Japan) equipped with Peltier temperature controller (Jasco Co., Tokyo, Japan), at 25 °C and a wavelength range of 190–400 nm using a 1-mm-path length quartz cuvette. Each CD spectrum is the average of three scans at 200 nm·min^−1 and a resolution of 0.5 nm. The CD solutions were prepared by mixing the appropriate volumes of stock solutions to give final concentrations of 0.1 mg/mL of hGSTP1-1, 2.5 mM of GSH, 1 mM of CDNB, and 5 μΜ of inhibitor in potassium phosphate buffer (100 mM, pH 6.5) at room temperature, while CD spectra of plain solutions of GSH, CDNB, DM96, and DM62 at the same concentrations were also run as controls (see supporting information). The analysis of the CD data was performed using the OriginPro 9 program and the content of the secondary structure was calculated through the CDNN Circular Dichroism Spectroscopy Deconvolution software.

[7] = variable substrate CDNB, 2.5 mM GSH
[8] = variable substrate GSH, 1 mM CDNB
[9] = Homo sapiens, DU-145, 48 h, MTT, 48 h incubation

T1 sequence (P09211 2-210 limits assumed): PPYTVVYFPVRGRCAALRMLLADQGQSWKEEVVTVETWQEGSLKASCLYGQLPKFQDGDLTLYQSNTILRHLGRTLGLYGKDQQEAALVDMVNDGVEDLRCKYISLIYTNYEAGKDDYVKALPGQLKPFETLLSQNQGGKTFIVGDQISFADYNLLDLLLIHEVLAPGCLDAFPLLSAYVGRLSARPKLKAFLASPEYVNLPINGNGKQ

Compound | inhibition at 100 µM [1] | IC50 [1] | Enzyme Inhibition (%) ([1]; 100 µM) | Experimental Binding Free Energy ΔGexp ([2]; variable substrate CDNB) | Experimental Binding Free Energy ΔGexp ([2]; variable substrate GSH) | Ki ([2]; variable substrate CDNB) | Ki ([2]; variable substrate GSH) | also measured
COc1ccc(/C=C2\CCC/C(=C\c3ccc(OC)cc3)C2=O)cc1 [DM46, 2,6-bid(4-methoxybenzylidene)cyclohexanone] | 8.5 ± 2.13% | – | – | – | – | – | – | –
O=C1C(=Cc2ccc(O)c(O)c2)CCCC1=Cc1ccc(O)c(O)c1 [DM151, 2,6-bis(3,4-dihydroxybenzylidene)cyclohexanone] | – | 11.2 ± 1.03 µM | 88.18 ± 3.65% | ΔGexp = −7.12 kcal/mol | ΔGexp = −7.43 kcal/mol | 9.55 µM | 5.79 µM | Type of Inhibition [2, 7]: Purely non-competitive; Type of Inhibition [2, 8]: Purely non-competitive; IC50 [3, 9]: 46.1 ± 3.68 µM; IC50 ([3]; MTT, 48 h incubation): 44.6 ± 1.08 µM; Enzyme Inhibition (%) [4]: did not show any inhibition at all; also recorded: No inhibition was observed
COc1cc(C=C2CCCC(=Cc3ccc(O)c(OC)c3)C2=O)ccc1O [DM100, 2,6-bis(3-methoxy-4-hydroxy-benzylidene)cyclohexanone] | 40 ± 1.84% | – | – | – | – | – | – | –
O=C(/C=C/c1ccc(F)cc1)/C=C/c1ccc(F)cc1 [DM109, (1E,4E)-1,5-bis(4-fluorophenyl)penta-1,4-dien-3-one] | ~95% | 19.5 ± 1.04 µM | 79.06 ± 2.54% | ΔGexp = −6.66 kcal/mol | ΔGexp = −5.96 kcal/mol | 20.1 µM | 35.1 µM | Type of Inhibition [2, 7]: Purely non-competitive; Type of Inhibition [2, 8]: Purely non-competitive; IC50 [3, 9]: 44.6 ± 1.08 µM; IC50 ([3]; MTT, 48 h incubation): 46.1 ± 3.68 µM
2,6-bis(3,4-dihydroxybenzylidene)cyclohexanone [DM57] | – | – | – | – | – | – | – | Enzyme Inhibition (%) [1]: 16.75 ± 3.61%
COc1cc(/C=C/C(=O)CC(=O)/C=C/c2ccc(O)c(OC)c2)ccc1O [Curcumin] | – | – | – | – | – | – | – | Mode of inhibition of hGSTP1-1 [5]: irreversible inhibitor
O=C(C=Cc1ccc(O)cc1)C=Cc1ccc(O)cc1 [DM96, 1,5-bis(4-hydroxyphenyl)penta-1,4-dien-3-one] | ~95% | 5.45 ± 1.08 µM | 86.99 ± 1.88% | -7.71 kcal/mol | -7.71 kcal/mol | 3.67 µM | 3.69 µM | Experimental Binding Free Energy ΔG′exp ([2]; variable substrate CDNB): -7.52 kcal/mol; Experimental Binding Free Energy ΔG′exp ([2]; variable substrate GSH): -8.29 kcal/mol; Type of Inhibition [2, 7]: mixed-type inhibitor; also recorded: Purely mixed; Inhibition Constant Ki΄ ([2]; variable substrate CDNB): 4.97 ± 2.86 μΜ; Type of Inhibition [2, 8]: partially mixed; also recorded: Partial mixed; Inhibition Constant Ki΄ ([2]; variable substrate GSH): 1.45 ± 0.43 μΜ; IC50 [3, 9]: 8.6 ± 1.07 µM; Effect on CD spectrum / conformation of the enzyme [6]: causes a great change in the CD spectrum
2,6-dibenzylidenecyclohexanone [DM15] | – | – | – | – | – | – | – | Enzyme Inhibition (%) [1]: 66.23 ± 2.57%
COc1ccc(/C=C/C(=O)/C=C/c2ccc(OC)c(OC)c2)cc1OC [DM95, (1E,4E)-1,5-bis(3,4-dimethoxyphenyl)penta-1,4-dien-3-one] | 44.2 ± 3.06% | – | – | – | – | – | – | –
COc1cc(/C=C/C(O)=C/C(=O)/C=C/c2ccc(O)cc2)ccc1O [DMC, Demethoxycurcumin] | – | 37.7 ± 1.02 µM | 94.56 ± 0.25% | -7.66 kcal/mol | -5.91 kcal/mol | 3.99 µM | 68 µM | Experimental Binding Free Energy ΔG′exp ([2]; variable substrate CDNB): -7.98 kcal/mol; Experimental Binding Free Energy ΔG′exp ([2]; variable substrate GSH): -6.07 kcal/mol; Type of Inhibition ([2]; variable substrate CDNB, 2.5 mM GSH, listed as Curcumin II): Partially mixed; Inhibition Constant Ki΄ ([2]; variable substrate CDNB): 2.36 ± 1.37 μΜ; Type of Inhibition ([2]; variable substrate GSH, 1 mM CDNB, listed as Curcumin II): Partially mixed; Inhibition Constant Ki΄ ([2]; variable substrate GSH): 52.83 ± 12.25 μΜ; IC50 ([3]; Homo sapiens, DU-145, 48 h): 48.5 ± 1.09 µM
O=C(/C=C/c1ccc(O)c(O)c1)/C=C/c1ccc(O)c(O)c1 [DM148, (1E,4E)-1,5-bis(3,4-dihydroxyphenyl)penta-1,4-dien-3-one] | 54.8 ± 0.52% | – | – | – | – | – | – | –
O=C1/C(=C/c2ccc(F)cc2)CCC/C1=C\c1ccc(F)cc1 [DM62, (2E,6E)-2,6-bis(4-fluorobenzylidene)cyclohexanone] | 8.4 ± 0.36% | – | – | – | – | – | – | Effect on CD spectrum / conformation of the enzyme [6]: does not cause the conformational changes observed with DM96
